From PubChem BioAssay AID468 (The Scripps Research Institute Molecular Screening Center, 2006) come the findings set out here.

Active and inactive are the calls of the source. How the calls were made is not given here.

A word on the EC50: it is the concentration needed to bring the measured effect to its halfway point.

In the assay the target is Sphingosine 1-phosphate receptor 1 (Homo sapiens) (UniProt P21453). Briefly: S1P1 receptor agonists, dose response, cell-based, agonist mode, 60K MLSMR set (AID 468). The conditions noted are these: S1P1 agonist cell-based assay, activation.
Sequence of Sphingosine 1-phosphate receptor 1 (Homo sapiens) (P21453 whole entry, looked up): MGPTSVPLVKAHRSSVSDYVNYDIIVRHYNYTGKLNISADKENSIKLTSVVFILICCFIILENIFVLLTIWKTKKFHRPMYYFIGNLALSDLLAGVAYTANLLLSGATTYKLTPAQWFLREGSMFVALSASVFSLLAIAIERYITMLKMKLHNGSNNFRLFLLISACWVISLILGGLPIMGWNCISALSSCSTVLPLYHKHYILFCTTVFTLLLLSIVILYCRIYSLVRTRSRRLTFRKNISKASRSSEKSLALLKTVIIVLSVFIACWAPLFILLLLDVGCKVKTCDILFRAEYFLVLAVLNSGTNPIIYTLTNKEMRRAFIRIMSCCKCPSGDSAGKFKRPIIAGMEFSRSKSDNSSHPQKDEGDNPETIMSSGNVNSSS
Take `COC(=O)CC1SC(=O)NC1=Nc1ccccc1` (stereo not drawn): the EC50 is > 95 µM (inactive). For the compound `CC1=C(C(=O)OCc2ccc3c(c2)OCO3)C(c2ccccc2)NC(=O)N1` (stereo not drawn), the concentration for a half-maximal effect (EC50) is 1.84 µM.

`COc1ccc(/C(O)=C2/C(=O)C(=O)N(CC3CCCO3)C2c2cccc(OC)c2)cc1` (stereo not drawn): the EC50 is > 95.1 µM (inactive). Regarding `COc1ccc(N2C(=O)CC(Sc3ncn[nH]3)C2=O)c(OC)c1` (stereo not drawn), the EC50 entry is “inactive”.

`CCC(=NCCOc1ccc(Cl)cc1)c1c(O)n(C)c(=O)n(C)c1=O`: the EC50 was 5.04 µM.

Take `CCCCc1ccc(C2C(C#N)=C(N)SC(N)=C2C#N)s1`: the EC50 result was “inactive”.

Take `CCOc1ccc(C(C)=O)cc1N1C(=O)C2C3C=CC(O3)C2C1=O` (stereo not drawn): the EC50 entry was “inactive”. With `O=C1C2C3C=CC(CO)(O3)C2C(=O)N1c1ccccc1-c1ccccc1` (stereo not drawn), the EC50 is 5.47 µM. With `CCOC(=O)c1cccc2c1-c1ccccc1/C2=N/O` the entry was “inactive”; with `CCC(=NCc1ccc2c(c1)OCO2)c1c(O)n(C2CCCCC2)c(=O)[nH]c1=O`, 6.81 µM; with `COc1ccc(/C=N/O)cc1COc1ccc(NC(C)=O)cc1`, > 95 µM (inactive).

In the case of `C/C(N)=C(/C#N)C(=O)CSc1nc2cc(Cl)ccc2s1`, the EC50 entry is “inactive”. As for `C/C(N)=C(/C#N)C(=O)CSc1nnc(SCc2ccc(Cl)cc2)s1`, the EC50 is 8.95 µM.

For the compound `CC1(C)CC(=O)C(C=Nc2ccc3[nH]ncc3c2)=C(O)C1`, the EC50 was 5.07 µM. As for `CCC(=NC(C)c1ccccc1)c1c(O)n(C)c(=O)n(C)c1=O` (stereo not drawn), the EC50 result is “inactive”. With `CC1=C(C(=O)OCc2ccc3c(c2)OCO3)C(c2ccc(F)cc2)NC(=O)N1` (stereo not drawn) the figure was 0.437 µM. Regarding `CC(=O)Oc1ccc(N2C(=O)C3C(C2=O)C2(C)C=CC3(C)O2)cc1` (stereo not drawn), the EC50 result is “inactive”. On to `Cc1[nH]nc2c1C1(C(=O)N(Cc3ccc(Cl)cc3)c3ccccc31)C(C#N)=C(N)O2` (stereo not drawn), for which the EC50 entry is “inactive”.
